# Assay results published in US6462205B1, “Method of preparing benzofurandione oxime derivatives” (Bayer Aktiengesellscahft, priority 1999, dated 2002).
# Where two headings read alike, the source gives them in different places.
# Assay: log p of the isomers of 3-methoximino-2-oxo-2,3-dihydrobenzofuran
# Format: physicochemical
# Settings: product of Example 5, value per isomer
logP (read-out: log p),logP,Compound
2.2,–,"CON=C1C(=O)Oc2ccccc21 (single isomer, unassigned; isomer 3) [E isomer, 3-Methoximino-2-oxo-2,3-dihydrobenzofuran]"
–,2.14,"CON=C1C(=O)Oc2ccccc21 (single isomer, unassigned; isomer 3) [Z isomer, 3-Methoximino-2-oxo-2,3-dihydrobenzofuran]"
